Type in all cases: in vivo
One assay deals with Amaranthus retroflexus. Description: Experiment 3: glasshouse, post-emergence, fresh weight after 19 days, % inhibition of growth. Particulars: 2 leaves; for inhibition at 2 g/ha / inhibition at 4 g/ha / inhibition at 8 g/ha / inhibition at 16 g/ha / inhibition at 31 g/ha / inhibition at 63 g/ha: Amaranthus retroflexus, post-emergence. How it is done: (§1) A series of experiments was carried out to determine the nature of the biological interaction between atrazine and five compounds of general formula I on a range of weed species. […] The growth stages of the plants at spraying are also presented with the results. Agricultural surfactant (nonyl phenol ethylene oxide condensate containing 9 moles ethylene oxide marketed as 'Agral') was added to all spray dilutions to give 0.2% v/v concentration. […] After 19 days the fresh weight of vegetation in each pot was determined. […] E = […]00003:character} where E, X and Y are percentage inhibition of growth. In addition, the ED50 or ED90 values (the application rates giving 50% or 90% inhibition of growth, respectively) were calculated from the results for the piperidinedione alone and with increasing rates of atrazine.

The test system of assay [1] is Brachiaria plantaginea (BRAPL). Description: Experiment 1: field experiment, post-emergence spray, % control 29 days after application. How it is done:
(§2) Duplicate 12m² plots were sprayed post-emergence with 250g or 500g/ha Compound 1 (in a composition according to Example 1 as described hereinafter) or 1500g/ha atrazine (in a commercial aqueous suspension concentrate formulation containing 500g/l w/v atrazine or a combination (as a tank mix) of the two herbicides in a volume of 300 litres/ha. The following control figures were recorded on the grass weeds Brachiaria plantaginea (BRAPL), Digitaria horizontalis (DIGHO) and Eleusine indica (ELEIN) 29 days after application.

For assay [2], the system named is Digitaria horizontalis (DIGHO). The assay is described as above. Here is the method:
as §2

Another assay deals with Eleusine indica (ELEIN). Described as above. How it is done: as §2
Assay [3] concerns Brassica kaber. Description: Experiment 3: glasshouse, post-emergence, fresh weight after 19 days, % inhibition of growth. To be noted: 2 leaves; for inhibition at 2 g/ha / inhibition at 4 g/ha / inhibition at 8 g/ha / inhibition at 16 g/ha / inhibition at 31 g/ha / inhibition at 63 g/ha: Mutarda arvensis, post-emergence. How it is done:
as §1

Assay [4] deals with Brassica kaber. Description: Experiment 4: glasshouse, pre-emergence, fresh weight after 27 days, % inhibition of growth. Particulars: for % inhibition of growth: Atrazine 0 g/ha. How it is done:
(§3) Glasshouse experiments showing the biological interaction between atrazine and Compound 99 on weed species when applied pre-emergence. […] After 27 days the fresh weight of vegetation in each pot was determined. […] E = […]00005:character} where E, X and Y are percentage inhibition of growth. In addition the ED90 values (the application rate giving 90% inhibition of growth) were calculated from the results for Compound 99 alone and with increasing rates of atrazine. The ED90 values were then used to plot an isobole for each species according to the method of […] op cit. The results of percentage inhibition of growth, the ED values calculated from them and the calculated expected values are given in Table 8.

A further assay has as its system Sida spinosa. The assay is described as above. Particulars: for % inhibition of growth: Atrazine 0 g/ha. How it is done: as §3
The next assay deals with Solanum nigrum. Description: Experiment 3: glasshouse, post-emergence, fresh weight after 19 days, % inhibition of growth. Particulars: for inhibition at 2 g/ha / inhibition at 4 g/ha / inhibition at 8 g/ha / inhibition at 16 g/ha / inhibition at 31 g/ha / inhibition at 63 g/ha: Solanum nigrum, post-emergence. How it is done: as §1

For `CC1(C)CC(=O)C(C(=O)c2ccc(Cl)cc2[N+](=O)[O-])C(=O)N1` (stereo not drawn) [Compound 1, 3-(4-chloro-2-nitrobenzoyl)-6,6-dimethylpiperidine-2,4-dione], the inhibition at 2 g/ha with Amaranthus retroflexus (Compound 1 2 g/ha alone) worked out at 25%. Further, the inhibition at 4 g/ha in the assay on Amaranthus retroflexus (Compound 1 4 g/ha alone) came out at 52%. This compound also yielded an inhibition at 8 g/ha in the assay on Amaranthus retroflexus (Compound 1 8 g/ha alone) of 73%. In addition, in the assay on Amaranthus retroflexus (Compound 1 16 g/ha alone), the inhibition at 16 g/ha came to 87%. In addition, the inhibition at 31 g/ha in the assay on Amaranthus retroflexus (Compound 1 31 g/ha alone) was found to be 95%. Further, the inhibition at 63 g/ha in the assay on Amaranthus retroflexus (Compound 1 63 g/ha alone) turned out to be 96%. For the same compound, in the assay on Amaranthus retroflexus (Compound 1 alone), the ED₉₀ result is recorded as “ED₉₀(g/ha) 22.58”. For the same compound, the “% control observed” value in assay [1] (Compound 1 @ 250g/ha) is 60%; in assay [1] (Compound 1 @ 500g/ha), 80%; in assay [2] (Compound 1 @ 250g/ha), 70%; in assay [2] (Compound 1 @ 500g/ha), 80%; in the assay with Eleusine indica (ELEIN) (Compound 1 @ 250g/ha), 70%; in the assay on Eleusine indica (ELEIN) (Compound 1 @ 500g/ha), 80%.
With `CC1(C)CC(=O)C(C(=O)c2ccc(C(F)(F)F)cc2[N+](=O)[O-])C(=O)N1` (stereo not drawn) [Compound 99, 3-(2-nitro-4-trifluoromethylbenzoyl)-6,6-dimethylpiperidine-2,4-dione], the inhibition at 2 g/ha is 37% with Amaranthus retroflexus (Compound 99 2 g/ha alone) and 22% in the assay on Brassica kaber [3] (Compound 99 2 g/ha alone). Further, the inhibition at 4 g/ha in the assay with Amaranthus retroflexus (Compound 99 4 g/ha alone) is 85%; with Brassica kaber [3] (Compound 99 4 g/ha alone), 40%. Further, the inhibition at 8 g/ha is 88% in the assay on Amaranthus retroflexus (Compound 99 8 g/ha alone) and 69% with Brassica kaber [3] (Compound 99 8 g/ha alone). Moreover, the figures for the inhibition at 16 g/ha in the assay on Amaranthus retroflexus (Compound 99 16 g/ha alone) and with Brassica kaber [3] (Compound 99 16 g/ha alone) were 80% and 58%, respectively. The inhibition at 31 g/ha in the assay on Amaranthus retroflexus (Compound 99 31 g/ha alone) and with Brassica kaber [3] (Compound 99 31 g/ha alone) was 91% throughout. The inhibition at 63 g/ha in the assay on Amaranthus retroflexus (Compound 99 63 g/ha alone) came to 98%; with Brassica kaber [3] (Compound 99 63 g/ha alone), 91%. In addition, the ED₉₀ entry was “ED₉₀(g/ha) 14” in the assay with Amaranthus retroflexus (Compound 99 alone), “ED₉₀(g/ha) 31” in the assay with Brassica kaber [3] (Compound 99 alone), “ED₉₀(g/ha) 340.34” in the assay with Brassica kaber [4] (Compound 99 alone) and “ED₉₀(g/ha) 146.26” with Sida spinosa (Compound 99 alone). For the same compound, the “% inhibition of growth” value in the assay with Brassica kaber [4] (Compound 99 8 g/ha) was determined as 0%; in the assay on Brassica kaber [4] (Compound 99 16 g/ha), 9%; with Brassica kaber [4] (Compound 99 31 g/ha), 10%; with Brassica kaber [4] (Compound 99 63 g/ha), 32%; with Brassica kaber [4] (Compound 99 125 g/ha), 20%; in the assay on Brassica kaber [4] (Compound 99 250 g/ha) it was 90%. Moreover, the “% inhibition of growth” value is recorded as 0% in the assay on Sida spinosa (Compound 99 8 g/ha); 17% in the assay on Sida spinosa (Compound 99 16 g/ha); 26% in the assay with Sida spinosa (Compound 99 31 g/ha); 52% with Sida spinosa (Compound 99 63 g/ha); 88% with Sida spinosa (Compound 99 125 g/ha); 97% with Sida spinosa (Compound 99 250 g/ha).
Consider `CS(=O)(=O)c1ccc(C(=O)C2C(=O)CCNC2=O)c([N+](=O)[O-])c1` (stereo not drawn) [Compound 110, 3-(4-methylsulphonyl-2-nitrobenzoyl)piperidine-2,4-dione], for which the ED₉₀ entry is given as “ED₉₀(g/ha) 5.87” with Solanum nigrum (Compound 110 alone, 1 leaf) and “ED₉₀(g/ha) 6.38” in the assay with Brassica kaber [3] (Compound 110 alone). The inhibition at 2 g/ha in the assay on Solanum nigrum (Compound 110 2 g/ha alone, 1 leaf) came out at 38%; in the assay on Brassica kaber [3] (Compound 110 2 g/ha alone), 45%. Further, the inhibition at 4 g/ha was 80% with Solanum nigrum (Compound 110 4 g/ha alone, 1 leaf) and 84% in the assay with Brassica kaber [3] (Compound 110 4 g/ha alone). In addition, the inhibition at 8 g/ha is 98% with Solanum nigrum (Compound 110 8 g/ha alone, 1 leaf) and 98% in the assay on Brassica kaber [3] (Compound 110 8 g/ha alone). Besides, the inhibition at 16 g/ha is 100% in the assay with Solanum nigrum (Compound 110 16 g/ha alone, 1 leaf) and 99% with Brassica kaber [3] (Compound 110 16 g/ha alone). The inhibition at 31 g/ha was found to be 100% with Solanum nigrum (Compound 110 31 g/ha alone, 1 leaf) and 100% with Brassica kaber [3] (Compound 110 31 g/ha alone). The inhibition at 63 g/ha in the assay with Solanum nigrum (Compound 110 63 g/ha alone, 1 leaf) turned out to be 100%; in the assay with Brassica kaber [3] (Compound 110 63 g/ha alone), 100%.
For the compound `CS(=O)(=O)c1ccc(C(=O)C2C(=O)CCNC2=O)c(Cl)c1` (stereo not drawn) [Compound 126, 3-(2-chloro-4-methylsulphonylbenzoyl)piperidine-2,4-dione], in the assay on Solanum nigrum (Compound 126 alone, 2 leaves), the ED₉₀ entry is “ED₉₀(g/ha)4.18”. The inhibition at 2 g/ha came out at 72% with Solanum nigrum (Compound 126 2 g/ha alone, 2 leaves) and 0% with Brassica kaber [3] (Compound 126 2 g/ha alone). Besides, the inhibition at 4 g/ha in the assay on Solanum nigrum (Compound 126 4 g/ha alone, 2 leaves) was 90%; in the assay on Brassica kaber [3] (Compound 126 4 g/ha alone), 0%. The inhibition at 8 g/ha in the assay on Solanum nigrum (Compound 126 8 g/ha alone, 2 leaves) worked out at 97%; in the assay with Brassica kaber [3] (Compound 126 8 g/ha alone), 0%. For the same compound, the inhibition at 16 g/ha with Solanum nigrum (Compound 126 16 g/ha alone, 2 leaves) turned out to be 100%; in the assay on Brassica kaber [3] (Compound 126 16 g/ha alone), 42%. For the same compound, the inhibition at 31 g/ha in the assay with Solanum nigrum (Compound 126 31 g/ha alone, 2 leaves) was 100%; in the assay with Brassica kaber [3] (Compound 126 31 g/ha alone), 69%. Moreover, the inhibition at 63 g/ha was found to be 100% in the assay on Solanum nigrum (Compound 126 63 g/ha alone, 2 leaves) and 66% in the assay on Brassica kaber [3] (Compound 126 63 g/ha alone). The ED₅₀ entry in the assay on Brassica kaber [3] (Compound 126 alone) is reported as “ED₅₀(g/ha) 28.09”.

These data come from patent EP0354047A2, “Herbicidal method using atrazine” (MAY & BAKER LIMITED, priority 1988, dated 1990).
